# Assay results as given in patent publication US7173022B2, “Bicyclic heterocycles as HIV integrase inhibitors” (priority 2004, dated 2007).
# Target: T1, HIV-integrase (Human immunodeficiency virus type 1 group M subtype B, UniProt P12497)
# T1 construct: Recombinant integrase (0.26 ng) was incubated with the beads
# Assay: HIV-Integrase Inhibition Activity (SPA bead strand transfer assay)
# Format: biochemical
# Conditions: recombinant integrase, biotin labeled substrate DNA on SPA beads, P33 labeled target DNA
# Experimental: HIV-Integrase InhibitionActivity. To evaluate in-vitro activity against HIV-integrase, 5 pmole of biotin labeled substrate DNA was bound to 100 μg of Streptavidin coated PVT SPA beads (Amersham Pharmacia Biotech). Recombinant integrase (0.26 ng) was incubated with the beads for 90 min at 37° C. Unbound enzyme was removed by washing the complex followed by addition of inhibitors and 0.1 fmol of P33 labeled target DNA. The reaction was stopped by adding EDTA to a final concentration of 10 mM. Samples were counted in TopCountNXT (Packard) and the CPM was used as a measure of integration. The reaction condition was as described in A. Engelman and R. Craigie, J. Virol 69, 5908–5911 (1995). The sequences of substrate and target DNA were described in Nucleic Acid Research 22, 1121–1122 (1994).
row,SMILES,IC50 [nM]
1,"CC1(C)CCn2c1nc(C(=O)NCc1ccc(F)cc1)c(O)c2=O [Example 1, N-(4-Fluorobenzyl)-3-hydroxy-8,8-dimethyl-4-oxo-4,6,7,8-tetrahydropyrrolo[1,2-a]pyrimidine-2-carboxamide]",2 to 9
2,"CNC(=O)c1cc(F)ccc1CNC(=O)c1nc2n(c(=O)c1O)CCC2(C)C [Example 2, N-(4-Fluoro-2-(methylcarbamoyl)benzyl)-3-hydroxy-8,8-dimethyl-4-oxo-4,6,7,8-tetrahydropyrrolo[1,2-a]pyrimidine-2-carboxamide]",10 to 49000
3,"CC1(C)CCn2c1nc(C(=O)NCc1ccc(F)cc1-n1cncn1)c(O)c2=O [Example 3, N-(4-fluoro-2-(1H-1,2,4-triazol-1-yl)benzyl)-3-hydroxy-8,8-dimethyl-4-oxo-4,6,7,8-tetrahydropyrrolo[1,2-a]pyrimidine-2-carboxamide]",2 to 9
4,"CC1(C)CCCn2c1nc(C(=O)NCc1ccc(F)cc1)c(O)c2=O [Example 4, 3-Hydroxy-9,9-dimethyl-4-oxo-6,7,8,9-tetrahydro-4H-pyrido[1,2-a]pyrimidine-2-carboxylic acid 4-fluoro-benzylamide]",2 to 9
5,"CNC(=O)c1cc(F)ccc1CNC(=O)c1nc2n(c(=O)c1O)CCCC2(C)C [Example 5, N-(4-Fluoro-2-(methylcarbamoyl)benzyl)-3-hydroxy-9,9-dimethyl-4-oxo-6,7,8,9-tetrahydro-4H-pyrido[1,2-a]pyrimidine-2-carboxamide]",2 to 9
6,"CC1(C)CCCn2c1nc(C(=O)NCc1ccc(F)cc1-n1cncn1)c(O)c2=O [Example 6, N-(4-Fluoro-2-(1H-1,2,4-triazol-1-yl)benzyl)-3-hydroxy-9,9-dimethyl-4-oxo-6,7,8,9-tetrahydro-4H-pyrido[1,2-a]pyrimidine-2-carboxamide]",2 to 9
7,"O=C(NCc1ccc(Cl)c(Cl)c1)c1nc2n(c(=O)c1O)CCC=C2c1ccccc1 [Example 7, N-(3,4-Dichlorobenzyl)-3-hydroxy-4-oxo-9-phenyl-6,7-dihydro-4H-pyrido[1,2-a]pyrimidine-2-carboxamide]",2 to 9
8,"O=C(NCc1ccc(F)cc1)c1nc2n(c(=O)c1O)CCC=C2c1ccccc1 [Example 8, N-(4-Fluorobenzyl)-3-hydroxy-4-oxo-9-phenyl-6,7-dihydro-4H-pyrido[1,2-a]pyrimidine-2-carboxamide]",2 to 9
9,"CNC(=O)c1cc(F)ccc1CNC(=O)c1nc2n(c(=O)c1O)CCC=C2c1ccccc1 [Example 9, N-(4-Fluoro-2-(methylcarbamoyl)benzyl)-3-hydroxy-4-oxo-9-phenyl-6,7-dihydro-4H-pyrido[1,2-a]pyrimidine-2-carboxamide]",2 to 9
10,"O=C(NCc1ccc(F)cc1)c1nc2n(c(=O)c1O)CCC=C2c1cccnc1 [Example 10, N-(4-Fluorobenzyl)-3-hydroxy-4-oxo-9-(pyridin-3-yl)-6,7-dihydro-4H-pyrido[1,2-a]pyrimidine-2-carboxamide]",2 to 9
11,"CNC(=O)c1cc(F)ccc1CNC(=O)c1nc2n(c(=O)c1O)CCC=C2c1cccnc1 [Example 11, N-(4-Fluoro-2-(methylcarbamoyl)benzyl)-3-hydroxy-4-oxo-9-(pyridin-3-yl)-6,7-dihydro-4H-pyrido[1,2-a]pyrimidine-2-carboxamide]",2 to 9
12,"CC1(C)CCCCn2c1nc(C(=O)NCc1ccc(F)cc1)c(O)c2=O [Example 12, N-(4-Fluorobenzyl)-3-hydroxy-10,10-dimethyl-4-oxo-4,6,7,8,9,10-hexahydropyrimido[1,2-a]azepine-2-carboxamide]",2 to 9
13,"CC1(C)CCCCn2c1nc(C(=O)NCc1ccc(F)cc1-n1cncn1)c(O)c2=O [Example 13, N-(4-Fluoro-2-(1H-1,2,4-triazol-1-yl)benzyl)-3-hydroxy-10,10-dimethyl-4-oxo-4,6,7,8,9,10-hexahydropyrimido[1,2-a]azepine-2-carboxamide]",2 to 9
